# How the values were obtained:
# Test in all cases: Test Example 1: foliar treatment, growth inhibition rate on 14th day
# Type in all cases: in vivo
# Conditions in all cases: active ingredient amount 31 g/ha, 14th day after application
# [1] = test system: corn (Zea mays L.)
# Source text: (§1) Upland field soil was put into a 1/300,000 hectare pot, and seeds of various plants were sown. When the respective plants reached predetermined leaf stage ((1) barnyardgrass (Echinochloa crus-[…].): 0.5 to 2.9 leaf stage, (2) crabgrass (Digitaria sanquinalis L.): 0.5 to 3.0 leaf stage, (3) green foxtail (Setaria viridis L.): 0.5 to 3.2 leaf stage, (4) wild oat (Avena fatua L.): 0.4 to 1.2 leaf stage, (5) italian ryegrass (Lolium multiflorum Lam.): 0.4 to 2.0 leaf stage, (6) redroot pigweed (Amaranthus retroflexus L.): cotyledon stage to 2.2 leaf stage, (7) rice (Oryza sativa L.): 0.2 to 2.7 leaf stage, (8) corn (Zea mays L.): 1.7 to 3.6 leaf stage, (9) wheat (Triticum aestivum L.): 1.3 to 2.3 leaf stage, (10) soybean (Glycine max Merr.); primary leaf stage), wettable powders or emulsifiable concentrates of the compounds of the present invention prepared in accordance with a conventional preparation method, were weighed so as to achieve the prescribed active ingredient amounts, and diluted with water in an amount corresponding to 1,000 liters per 1 hectare (containing 0.1 vol % of an agricultural spreader (surfactant WK manufactured by MARUWA BIOCHEMICAL Co., Ltd.)), and the spray solutions thus prepared were applied for foliar treatment by a small sprayer. On the 14th day after the application, the state of growth of the respective plants was visually observed, and the herbicidal effect was evaluated by a growth inhibition rate (%) of 0 (equivalent to the non-treated area) to 100 (complete kill).
# [2] = test system: wild oat (Avena fatua L.)
# Source text: as §1
# [3] = test system: crabgrass (Digitaria sanquinalis L.)
# Source text: as §1
# [4] = test system: green foxtail (Setaria viridis L.)
# Source text: as §1
# [5] = test system: barnyardgrass (Echinochloa crus-qalli L.)
# Source text: as §1
# [6] = test system: rice (Oryza sativa L.)
# Source text: as §1
# [7] = test system: wheat (Triticum aestivum L.)
# Source text: as §1
# [8] = test system: redroot pigweed (Amaranthus retroflexus L.)
# Source text: as §1
# [9] = test system: soybean (Glycine max Merr.)
# Source text: as §1
# [10] = test system: italian ryegrass (Lolium multiflorum Lam.)
# Source text: as §1
SMILES,Growth inhibition rate (%) Corn [1] [%],Growth inhibition rate (%) Wild oat [2] [%],Growth inhibition rate (%) Crabgrass [3] [%],Growth inhibition rate (%) Green foxtail [4] [%],Growth inhibition rate (%) Barnyardgrass [5] [%],Growth inhibition rate (%) Rice [6] [%],Growth inhibition rate (%) Wheat [7] [%],Growth inhibition rate (%) Redroot pigweed [8] [%],Growth inhibition rate (%) Soybean [9] [%],Growth inhibition rate (%) Italian ryegrass [10] [%]
CC(=O)Oc1c(C)nn(C)c(=O)c1-c1cc(Oc2nccc(C(F)(F)F)c2Cl)ccc1C [Compound 2-131],40,50,65,98,85,10,45,10,10,78
CC(=O)Oc1c(C)nn(C)c(=O)c1-c1cc(Oc2nc3cc(Cl)ccc3o2)ccc1C [Compound 2-139],65,98,98,90,90,98,95,0,10,98
CC(=O)Oc1c(C)nn(C)c(=O)c1-c1cc(Oc2nc3ccc(C)cc3s2)ccc1C [Compound 2-152],0,0,20,85,85,78,75,0,0,35
COc1ccc2nc(Oc3ccc(C)c(-c4c(OC(C)=O)c(C)nn(C)c4=O)c3)sc2c1 [Compound 2-154],0,0,10,60,80,0,0,0,10,10
COC(=O)OC(C)Oc1cnn(C)c(=O)c1-c1cc(Oc2nc3ccc(Cl)cc3o2)ccc1C (stereo not shown) [Compound 2-178],83,95,100,100,100,15,75,0,0,98
Cc1ccc(Oc2nc3ccc(Cl)cc3o2)cc1-c1c(O)cnn(CC(F)F)c1=O [Compound 2-179],75,0,98,100,88,0,10,0,0,0
Cc1ccc(Oc2nc3cc(Br)ccc3o2)cc1-c1c(O)cnn(C)c1=O [Compound 2-183],50,95,98,98,95,90,90,0,30,98
Cc1ccc(Oc2nc3cc(F)ccc3o2)cc1-c1c(O)cnn(C)c1=O [Compound 2-184],40,30,95,99,95,60,10,0,30,35
Cc1ccc(Oc2nc3cccc(Cl)c3o2)cc1-c1c(O)cnn(C)c1=O [Compound 2-185],10,0,85,88,93,0,0,0,20,0
Cc1ccc(Oc2nc3ccc(Cl)cc3o2)cc1-c1c(O)cnn(CC2CC2)c1=O [Compound 2-186],98,25,99,99,90,0,0,0,15,0
Cc1ccc(Oc2ccc3nc(Cl)cn3n2)cc1-c1c(O)c(C)nn(C)c1=O [Compound 2-193],65,0,90,93,70,0,0,0,0,0
CCOC(=O)Oc1c(C)nn(C)c(=O)c1-c1cc(Oc2cnc3cc(Cl)ccc3n2)ccc1C [Compound 3-35],60,100,99,99,100,95,100,10,25,99
CCCCC(=O)Oc1c(C)nn(C)c(=O)c1-c1cc(Oc2cnc3cc(Cl)ccc3n2)ccc1C [Compound 3-36],40,99,99,99,100,90,99,0,40,99
Cc1ccc(Oc2cnc3cc(Cl)ccc3n2)cc1-c1c(OC(=O)C2CC2)c(C)nn(C)c1=O [Compound 3-37],45,98,99,100,100,95,99,10,30,99
Cc1ccc(Oc2cnc3cc(Cl)ccc3n2)cc1-c1c(OC(=O)c2ccccc2)c(C)nn(C)c1=O [Compound 3-38],30,98,100,100,100,80,98,20,25,99
Cc1ccc(Oc2cnc3cc(Cl)ccc3n2)cc1-c1c(OC(=O)N2CCOCC2)c(C)nn(C)c1=O [Compound 3-39],15,0,0,95,88,0,0,0,0,0
